The source of these data is EP0390135A1, “Pyrroloquinoline derivatives, antimicrobial agents using the same and process for preparing the same” (OTSUKA PHARMACEUTICAL CO., LTD., priority 1989, dated 1990).

In brackets after ≈: the same amount, converted by molar mass. Where a name gives a salt, the structure may show the parent alone. Read-outs that look alike come from different tables or passages of the source.

Data set [1] relates to A.calcoaceticus Ac-54. As to the kind of experiment: MIC by agar plate dilution method. It is filed as cell-based. The protocol: (§1) In order to investigate the in vitro activity of the under-mentioned compounds against various bacteria, the minimal inhibitory concentration (MIC, µg/mℓ) values were determined by the agar plate dilution method (see Chemotherapy, 22, 1126-1128 (1974)]. The results are shown in Table 1.

Data set [2] relates to E.coli NIHJ JC-2. As to the kind of experiment: MIC by agar plate dilution method. It is filed as cell-based. As to the method:
as §1

Data set [3] relates to E.facalis ATCC-21212. In words: MIC by agar plate dilution method. It is filed as cell-based. Conditions: in vitro. The protocol: as §1
Data set [4] deals with K.pneumoniae NCTC-9632. In words: MIC by agar plate dilution method. It is filed as cell-based. As to the method:
as §1

In data set [5] the test system is M.morganii IID Kono. In words: MIC by agar plate dilution method. It is filed as cell-based. Particulars: in vitro. The protocol:
as §1

The subject of data set [6] is P.aeruginosa ATCC-10145. In words: MIC by agar plate dilution method. It is filed as cell-based. As to the method:
as §1

For data set [7], the system named is P.aeruginosa E-2. In words: MIC by agar plate dilution method. It is filed as cell-based. As to the method: as §1
In data set [8] the test system is P.mirabilis ATCC-29906. As to the kind of experiment: MIC by agar plate dilution method. It is filed as cell-based. The protocol: as §1
Data set [9] deals with S.aureus FDA209P. In words: MIC by agar plate dilution method. Particulars: in vitro. It is filed as cell-based. The protocol:
as §1

In data set [10] the test system is S.marcoscons IFO-12648. As to the kind of experiment: MIC by agar plate dilution method. It is filed as cell-based. Particulars: in vitro. As to the method: as §1
Data set [11] is described as follows: Ratio of dissolution to water (water solubility).
A short description of data set [12]: physchem. Conditions: water, Ratio of dissolution to water.
Where [13] appears, read: Acinetobacter calcoaceticus, AC54, in vitro, read-out: MIC.
Where [14] appears, read: Escherichia coli, NIHJJC2, in vitro, read-out: MIC.
The mark [15] stands for this setting: Klebsiella pneumoniae, NCTC9632, in vitro, read-out: MIC.
Setting [16] is: Morganella morganii, read-out: MIC.
Setting [17] is: Pseudomonas aeruginosa, ATCC10145, in vitro, read-out: MIC.
[18] abbreviates: Pseudomonas aeruginosa, E2, in vitro, read-out: MIC.
Setting [19] is: Proteus mirabilis, ATCC29906, in vitro, read-out: MIC.
Setting [20] is: Staphylococcus aureus, FDA209P, read-out: MIC.
The mark [21] stands for this setting: Ratio of dissolution to water, at 20 °C.

As to `CC1Cc2c(N3CCC(N)C3)c(F)cc3c(=O)c(C(=O)O)cn1c23` (single isomer, unassigned; (+)) [Example 17, (+)-8-fluoro-2-methyl-9-(3-amino-1-pyrrolidinyl)-6-oxo-1,2-dihydro-6H-pyrrolo[3,2,1-ij]quinoline-5-carboxylic acid], the MIC (usually the least concentration at which growth counts as inhibited) in data set [1] (setting [13]) is 0.39 µg/mL (≈ 1.18 µM); in data set [2] (setting [14]), 0.05 µg/mL (≈ 0.151 µM); in data set [3] (read-out: MIC), 3.13 µg/mL (≈ 9.45 µM); in [4] (setting [15]), 0.05 µg/mL (≈ 0.151 µM); in data set [5] (setting [16]) it was 0.024 µg/mL (≈ 0.0724 µM); in [6] (setting [17]), 0.39 µg/mL (≈ 1.18 µM). For the same molecule, the MIC in [7] (setting [18]) stood at 0.39 µg/mL (≈ 1.18 µM); in data set [8] (setting [19]), 0.1 µg/mL (≈ 0.302 µM); in [9] (setting [20]) it was 0.2 µg/mL (≈ 0.604 µM); in [10] (read-out: MIC), 0.1 µg/mL (≈ 0.302 µM).
On to `CC1Cc2c(N3CCN(C)CC3)c(F)cc3c(=O)c(C(=O)O)cn1c23` (single isomer, unassigned) [Example 7 hydrochloride], for which, in data set [11] (setting [21]), the solubility (commonly the dissolved amount per volume that the medium holds) was 230 mg/mL.
Same read-out and setting: under `CC1CN(c2c(F)cc3c(=O)c(C(=O)O)cn4c3c2CC4C)CCN1` (single isomer, unassigned; (+)) [Example 20, (+)-8-fluoro-2-methyl-9-(3-methyl-1-piperazinyl)-6-oxo-1,2-dihydro-6H-pyrrolo[3,2,1-ij]quinoline-5-carboxylic acid] stands 143 mg/mL.
As for `CC1CN(c2c(F)cc3c(=O)c(C(=O)O)cn4c3c2CC4C)CCN1.Cl` (single isomer, unassigned; (+)) [Example 8, (+)-8-fluoro-2-methyl-9-(3-methyl-1-piperazinyl)-6-oxo-1,2-dihydro-6H-pyrrolo[3,2,1-ij]quinoline-5-carboxylic acid hydrochloride], the “Ratio of dissolution to water” value worked out at 385 mg/mL. For the same molecule, the MIC in [1] (setting [13]) is 0.39 µg/mL. Also, in data set [2] (setting [14]), the MIC was 0.05 µg/mL. Besides, in [3] (read-out: MIC), the MIC came to 3.13 µg/mL. Besides, the MIC in data set [4] (setting [15]) came to 0.05 µg/mL. For the same molecule, in [5] (setting [16]), the minimal inhibitory concentration (MIC) is 0.012 µg/mL. The MIC in data set [6] (setting [17]) was 0.39 µg/mL. In addition, the MIC in data set [7] (setting [18]) came out at 0.39 µg/mL. In addition, the MIC in [8] (setting [19]) worked out at 0.1 µg/mL. In addition, the MIC in data set [9] (setting [20]) is 0.2 µg/mL. Moreover, in data set [10] (read-out: MIC), the MIC came to 0.1 µg/mL.
As to `CC(C)NCC1CCN(c2c(F)cc3c(=O)c(C(=O)O)cn4c3c2CC4C)C1` (single isomer, unassigned; (+)) [Example 19, (+)-8-fluoro-2-methyl-9-[3-(isopropylaminomethy 1-pyrrolidyl]-6-oxo-1,2-dihydro-6H-pyrrolo[3,2,1-ij]quinoline-5-carboxylic acid hydrochloride], the solubility in data set [11] (setting [21]) worked out at 135 mg/mL.
`CC1Cc2c(N3CCN(C)CC3)c(F)cc3c(=O)c(C(=O)O)cn1c23` (single isomer, unassigned; (+)) [Example 7, (+)-8-fluoro-2-methyl-9-(4-methyl-1-piperazinyl)-6-oxo-1,2-dihydro-6H-pyrrolo[3,2,1-ij]quinoline-5-carboxylic acid]: the MIC in [1] (in vitro, listed as A) is 0.1 µg/mL (≈ 0.29 µM); in [2] (in vitro, listed as A), 0.05 µg/mL (≈ 0.145 µM); in data set [3] (listed as A) it was 0.78 µg/mL (≈ 2.26 µM); in data set [4] (in vitro, listed as A) it was 0.05 µg/mL (≈ 0.145 µM); in data set [5] (listed as A), 0.05 µg/mL (≈ 0.145 µM); in data set [6] (in vitro, listed as A), 1.56 µg/mL (≈ 4.52 µM). Further, the MIC in [7] (in vitro, listed as A) was found to be 0.78 µg/mL (≈ 2.26 µM); in [8] (in vitro, listed as A) it was 0.2 µg/mL (≈ 0.579 µM); in data set [9] (listed as A) it was 0.1 µg/mL (≈ 0.29 µM); in data set [10] (listed as A), 0.05 µg/mL (≈ 0.145 µM).
For `CCNCC1CCN(c2c(F)cc3c(=O)c(C(=O)O)cn4c3c2CC4C)C1.Cl` (single isomer, unassigned; (+)) [Example 18, (+)-8-fluoro-2-methyl-9-[3-(ethylaminomethyl)-1-pyrrolidinyl]-6-oxo-1,2-dihydro-6H-pyrrolo[3,2,1-ij]quinoline-5-carboxylic acid hydrochloride], in data set [11], the solubility turned out to be 195 mg/mL.
On to `CC1CN(c2c(F)cc3c(=O)c(C(=O)O)cn4c3c2CC4C)CCN1.Cl` (single isomer, unassigned; (-)) [Reference Example 2, (-)-8-fluoro-2-methyl-9-(3-methyl-1-piperazinyl)-6-oxo-1,2-dihydro-6H-pyrrolo[3,2,1-ij]quinoline-5-carboxylic acid hydrochloride, reference compound], for which the “Ratio of dissolution to water” value amounted to 167 mg/mL.
For `CC1CN(c2c(F)cc3c(=O)c(C(=O)O)cn4c3c2CC4C)CC(C)N1.Cl` (single isomer, unassigned; (+)) [Example 12, (+)-8-fluoro-2-methyl-9-(3,5-dimethyl-1-piperazinyl)-6-oxo-1,2-dihydro-6H-pyrrolo[3,2,1-ij]quinoline-5-carboxylic acid hydrochloride], the solubility in data set [11] was determined as 175 mg/mL.
Regarding `CC1COc2c(N3CCN(C)CC3)c(F)cc3c(=O)c(C(=O)O)cn1c23` (stereo not drawn) [Test Compound G, S-(-)-9-fluoro-3-methyl-10-(4-methyl-1-piperazinyl)-7-oxo-2,3-dihydro-7H-pyrido[1,2,3-de][1,4]benzoxazine-6-carboxylic acid, reference compound], the MIC in [1] (setting [13]) is 0.39 µg/mL (≈ 1.08 µM); in data set [2] (setting [14]), 0.1 µg/mL (≈ 0.277 µM); in data set [3] (read-out: MIC), 3.13 µg/mL (≈ 8.66 µM); in data set [4] (setting [15]), 0.1 µg/mL (≈ 0.277 µM); in data set [5] (setting [16]) it was 0.1 µg/mL (≈ 0.277 µM); in data set [6] (setting [17]) it was 3.13 µg/mL (≈ 8.66 µM). Besides, the MIC in data set [7] (setting [18]) is 1.5 µg/mL (≈ 4.15 µM); in [8] (setting [19]), 0.39 µg/mL (≈ 1.08 µM); in data set [9] (setting [20]) it was 0.2 µg/mL (≈ 0.553 µM); in data set [10] (read-out: MIC), 0.2 µg/mL (≈ 0.553 µM).
Turning to `CC1Cc2c(N3CCN(C)CC3)c(F)cc3c(=O)c(C(=O)O)cn1c23` (single isomer, unassigned; (-)) [Reference Example 1, (-)-8-fluoro-2-methyl-9-(4-methyl-1-piperazinyl)-6-oxo-1,2-dihydro-6H-pyrrolo[3,2,1-ij]quinoline-5-carboxylic acid, reference compound], the MIC was 3.13 µg/mL (≈ 9.06 µM) in data set [1] (in vitro, listed as F); 0.78 µg/mL (≈ 2.26 µM) in [2] (in vitro, listed as F); 100 µg/mL (≈ 290 µM) in [3] (listed as F); 0.78 µg/mL (≈ 2.26 µM) in data set [4] (in vitro, listed as F); 0.78 µg/mL (≈ 2.26 µM) in [5] (listed as F); 25 µg/mL (≈ 72.4 µM) in [6] (in vitro, listed as F). The MIC was determined as 12.5 µg/mL (≈ 36.2 µM) in [7] (in vitro, listed as F); 3.13 µg/mL (≈ 9.06 µM) in data set [8] (in vitro, listed as F); 3.13 µg/mL (≈ 9.06 µM) in [9] (listed as F); 0.78 µg/mL (≈ 2.26 µM) in [10] (listed as F).
In the case of `CC1Cc2c(N3CCN(C)CC3)c(F)cc3c(=O)c(C(=O)O)cn1c23` (racemic) [Test Compound E, 8-fluoro-2-methyl-9-(4-methyl-1-piperazinyl)-6-oxo-1,2-dihydro-6H-pyrrolo[3,2,1-ij]quinoline-5-carboxylic acid, reference compound], the MIC is 0.2 µg/mL (≈ 0.579 µM) in [1] (setting [13]); 0.1 µg/mL (≈ 0.29 µM) in data set [2] (setting [14]); 1.56 µg/mL (≈ 4.52 µM) in data set [3] (read-out: MIC); 0.1 µg/mL (≈ 0.29 µM) in data set [4] (setting [15]); 0.1 µg/mL (≈ 0.29 µM) in [5] (setting [16]); 3.13 µg/mL (≈ 9.06 µM) in [6] (setting [17]). Further, the MIC stood at 1.56 µg/mL (≈ 4.52 µM) in [7] (setting [18]), 0.39 µg/mL (≈ 1.13 µM) in data set [8] (setting [19]), 0.2 µg/mL (≈ 0.579 µM) in data set [9] (setting [20]) and 0.1 µg/mL (≈ 0.29 µM) in data set [10] (read-out: MIC).
As for `CC1CN(c2c(F)cc3c(=O)c(C(=O)O)cn4c3c2CC4C)CCN1.Cl` (racemic) [Example 10, (±)-8-fluoro-2-methyl-9-(3-methyl-1-piperazinyl)-6-oxo-1,2-dihydro-6H-pyrrolo[3,2,1-ij]quinoline-5-carboxylic acid hydrochloride], the solubility in [12] turned out to be 152 mg/mL.
On the same count and under the same terms, under `CC1Cc2c(N3CCN(C)CC3)c(F)cc3c(=O)c(C(=O)O)cn1c23.Cl` (racemic) [Reference Example 3, (±)-8-fluoro-2-methyl-9-(4-methyl-1-piperazinyl)-6-oxo-1,2-dihydro-6H-pyrrolo[3,2,1-ij]quinoline-5-carboxylic acid hydrochloride, reference compound] stands 12 mg/mL.
Turning to `CC1CN(c2c(Cl)cc3c(=O)c(C(=O)O)cn4c3c2CC4C)CCN1.Cl` (single isomer, unassigned; (+)) [Example 11, (+)-8-chloro-2-methyl-9-(3-methyl-1-piperazinyl)-6-oxo-1,2-dihydro-6H-pyrrolo[3,2,1-ij]quinoline-5-carboxylic acid hydrochloride], the MIC was 0.78 µg/mL in [1] (setting [13]); 0.1 µg/mL in data set [2] (setting [14]); 6.25 µg/mL in [3] (read-out: MIC); 0.1 µg/mL in data set [4] (setting [15]); 0.024 µg/mL in data set [5] (setting [16]); 0.78 µg/mL in [6] (setting [17]). The MIC came to 0.78 µg/mL in data set [7] (setting [18]), 0.2 µg/mL in [8] (setting [19]), 0.39 µg/mL in data set [9] (setting [20]) and 0.2 µg/mL in data set [10] (read-out: MIC). Moreover, the solubility in data set [12] is 231 mg/mL.
Turning to `CC1Cc2c(N3CCC(N)C3)c(F)cc3c(=O)c(C(=O)O)cn1c23.Cl` (single isomer, unassigned; (+)) [Example 17 hydrochloride, (+)-8-fluoro-2-methyl-9-(3-amino-1-pyrrolidyl)-6-oxo-1,2-dihydro-6H-pyrrolo[3,2,1-ij]quinoline-5-carboxylic acid hydrochloride], in data set [12], the solubility came to 158 mg/mL.
